Test results from paper PMC8217813, “Bridging Computational Vaccinology and Vaccine Development Through Systematic Identification, Characterization, and Downselection of Conserved and Variable Circumsporozoite Protein CD4 T Cell Epitopes From Diverse Plasmodium falciparum Strains” (Frontiers in Immunology, 2021).
Read-outs that look alike come from different tables or passages of the source. Peptide text beside a SMILES is read from it.

Tests used:
HLA A*0301 = target: T1, HLA A*0301 (Homo sapiens, UniProt P04439); assay: In vitro class I HLA binding competition assay (fluorescence polarization); conditions: allele A0301; cell-free competition with fluorescently labeled control peptide, fluorescence polarization at 72 hours
T1 construct: Pure Protein, LLC (ran the assay)

HLA B*0702 = target: T2, HLA B*0702 (Homo sapiens, UniProt P01889); assay: biochemical; type: binding; conditions: allele B0702; cell-free competition with fluorescently labeled control peptide, fluorescence polarization at 72 hours
T2 construct: Pure Protein, LLC (ran the assay)

HLA A*0201 = target: T3, HLA A*0201 (Homo sapiens, UniProt P04439, D140Y/D185E/D98H/E176V/E277Q/G131W/G231S/I119V/I121R/I166T/I218V/L300P/L318F/N151K/N90K/P208A/P217A/Q86G/Q94H/R138H/R169H/T345S); assay: biochemical; type: binding
T3 construct: Pure Protein, LLC (ran the assay)

[1] = system: CD4 T cells co-cultured with autologous DCs from PBMCs; type: cell-based, human
HLA-DRB1*1501 = target: T4, HLA-DRB1*1501 (Homo sapiens, UniProt P01903+P01911); assay: In vitro class II HLA binding competition assay
T4 construct: purchased
Description: (§1) EpiVax conducted in vitro quantification of peptide-HLA binding affinity utilizing a competition assay format per the methodology described in ([35]). Briefly, a fluorescent-labeled, high-binding reference peptide and titrating concentrations of test peptide were incubated in a 96-well plate format with limiting concentrations of class II HLA monomers in aqueous buffer for 24-hours. Post incubation, the mixtures were moved to a 96-well plate coated with anti-HLA-DR antibody to capture HLA-peptide complexes. Time-resolved fluorescence measurement of the bound labeled reference peptide complex present in each mixture were detected with a europium-linked probe via fluorescent spectrophotometry using a SpectraMax M5 system. HLA binding affinity of each test peptide was expressed as the percent inhibition of reference peptide binding. Percent inhibition values (across the test peptide titration range) were used to calculate the half maximal inhibitory concentration (IC50) of each test peptide. For these studies, test peptides were assessed using a range of final concentrations from 100,000 nM to 100 nM and all peptides were reconstituted in dimethyl sulfoxide (DMSO).

HLA-DRB1*1301 = HLA-DRB1*1301 (Homo sapiens, UniProt P01903+P01911, A100E/A169T/K41T/L162R/M171V/P40S/Q125H/Q178H/Q39Y/Q99D/R42S/S66N/T262R/W38E/Y61H); assay: In vitro class II HLA binding competition assay; conditions: competition with fluorescent-labeled reference peptide, class II HLA monomers, 24-hours, test peptide 100,000 nM to 100 nM, time-resolved fluorescence
Description: as §1

HLA-DRB1*0801 = HLA-DRB1*0801 (Homo sapiens, UniProt P01903+P01911, A100R/A103L/A169T/D86S/F76Y/H45Y/I96F/K41T/L162R/M171V/P40S/Q125H/Q178H/Q39Y/Q99D/R218S/R42G/S66Y/V115G/W38E); assay: In vitro class II HLA binding competition assay; conditions: competition with fluorescent-labeled reference peptide, class II HLA monomers, 24-hours, test peptide 100,000 nM to 100 nM, time-resolved fluorescence
Description: as §1

HLA-DRB1*0101 = target: T5, HLA-DRB1*0101 (Homo sapiens, UniProt P01903+P01911, A100R/D57E/F55L/F60I/F76Y/I96L/L162R/M171V/P40L/Q125E/R42F/V115G/Y59C); assay: In vitro class II HLA binding competition assay
T5 construct: purchased
Description: as §1

HLA-DRB1*0701 = HLA-DRB1*0701 (Homo sapiens, UniProt P01903+P01911, A100R/A102G/A103Q/D57E/D86V/E43K/F76Y/K127E/L162R/M171V/P40G/Q125H/Q99D/R33Q/R42Y/R54Q/S133A/S66F/T210M/V115G/Y107V/Y59L/Y89S); assay: In vitro class II HLA binding competition assay
Description: as §1

HLA-DRB1*0401 = target: T6, HLA-DRB1*0401 (Homo sapiens, UniProt P01903+P01911, A100K/A169T/F76Y/I96L/K127E/L162R/M171V/N62H/P40V/Q125Y/R42H/S133A/S149N/S66Y/V115G/V209L/W38E); assay: In vitro class II HLA binding competition assay
T6 construct: purchased
Description: as §1

[2] = DR1 donors N=5, positive = Stimulation Index ≥1.5-fold above baseline, ICCS, 5 µg/mL peptide
[3] = DR3 donors N=6, positive = Stimulation Index ≥1.5-fold above baseline, ICCS, 5 µg/mL peptide
[4] = DR4 donors N=10, positive = Stimulation Index ≥1.5-fold above baseline, ICCS, 5 µg/mL peptide
[5] = DR7 donors N=4, positive = Stimulation Index ≥1.5-fold above baseline, ICCS, 5 µg/mL peptide
[6] = DR8 donors N=4, positive = Stimulation Index ≥1.5-fold above baseline, ICCS, 5 µg/mL peptide
[7] = DR9 donors N=4, positive = Stimulation Index ≥1.5-fold above baseline, ICCS, 5 µg/mL peptide
[8] = DR11 donors N=4, positive = Stimulation Index ≥1.5-fold above baseline, ICCS, 5 µg/mL peptide
[9] = DR13 donors N=7, positive = Stimulation Index ≥1.5-fold above baseline, ICCS, 5 µg/mL peptide
[10] = DR15 donors N=7, positive = Stimulation Index ≥1.5-fold above baseline, ICCS, 5 µg/mL peptide

Structure (SMILES): CC[C@H](C)[C@H](NC(=O)[C@H](CO)NC(=O)[C@H](CO)NC(=O)[C@H](CC(N)=O)NC(=O)[C@@H](NC(=O)[C@@H](NC(=O)[C@H](CC(N)=O)NC(=O)[C@H](Cc1ccccc1)NC(=O)[C@@H](NC(=O)[C@@H](N)CO)C(C)C)C(C)C)C(C)C)C(=O)O [Cluster 376_3D7] (H-SVFNVVNSSI-OH)
- IC50 (nM) (HLA A*0301): Non-Binder
- IC50 (nM) (HLA B*0702): Non-Binder
- IC50 (HLA A*0201; allele A0201, cell-free competition with fluorescently labeled control peptide, fluorescence polarization at 72 hours, read-out: IC50): 342 µM

Structure (SMILES): CC[C@H](C)[C@H](NC(C)=O)C(=O)N[C@@H](CCC(=O)O)C(=O)N[C@@H](CCC(N)=O)C(=O)N[C@@H](Cc1ccc(O)cc1)C(=O)N[C@@H](CC(C)C)C(=O)N[C@@H](CCCCN)C(=O)N[C@@H](CCCCN)C(=O)N[C@H](C(=O)N[C@@H](CCC(N)=O)C(=O)N[C@@H](Cc1ccc(O)cc1)C(=O)N[C@@H](CO)C(=O)N[C@@H](CC(C)C)C(=O)N[C@@H](CO)C(=O)N[C@H](C(=O)N[C@@H](CCC(=O)O)C(=O)N[C@@H](Cc1c[nH]c2ccccc12)C(=O)N[C@@H](CO)C(=O)N1CCC[C@H]1C(=O)N[C@@H](CS)C(N)=O)[C@@H](C)O)[C@@H](C)CC [ICS7] (Ac-IEQYLKKIQYSLSTEWSPC-NH2)
- median SI, IFN-γ recall responses [1]: 1.75
- Percentage of donors demonstrating IFN-γ responses, DR1 ([1]; DR1 donors N=5, positive = Stimulation Index ≥1.5-fold above baseline, ICCS after 14-day co-culture, 5 µg/mL peptide): 60%
- Percentage of donors demonstrating IL-2 responses, DR1 [1, 2]: 60%
- Percentage of donors demonstrating IL-4 responses, DR1 [1, 2]: 20%
- Percentage of donors demonstrating IL-10 responses, DR1 [1, 2]: 0%
- Percentage of donors demonstrating TNF-α responses, DR1 [1, 2]: 40%
- Percentage of donors demonstrating IFN-γ responses, DR3 ([1]; DR3 donors N=6, positive = Stimulation Index ≥1.5-fold above baseline, ICCS after 14-day co-culture, 5 µg/mL peptide): 67%
- Percentage of donors demonstrating IL-2 responses, DR3 [1, 3]: 33%
- Percentage of donors demonstrating IL-4 responses, DR3 [1, 3]: 0%
- Percentage of donors demonstrating IL-10 responses, DR3 [1, 3]: 0%
- Percentage of donors demonstrating TNF-α responses, DR3 [1, 3]: 50%
- Percentage of donors demonstrating IFN-γ responses, DR4 ([1]; DR4 donors N=10, positive = Stimulation Index ≥1.5-fold above baseline, ICCS after 14-day co-culture, 5 µg/mL peptide): 70%
- Percentage of donors demonstrating IL-2 responses, DR4 [1, 4]: 70%
- Percentage of donors demonstrating IL-4 responses, DR4 [1, 4]: 0%
- Percentage of donors demonstrating IL-10 responses, DR4 [1, 4]: 10%
- Percentage of donors demonstrating TNF-α responses, DR4 [1, 4]: 80%
- Percentage of donors demonstrating IFN-γ responses, DR7 ([1]; DR7 donors N=4, positive = Stimulation Index ≥1.5-fold above baseline, ICCS after 14-day co-culture, 5 µg/mL peptide): 75%
- Percentage of donors demonstrating IL-2 responses, DR7 [1, 5]: 75%
- Percentage of donors demonstrating IL-4 responses, DR7 [1, 5]: 0%
- Percentage of donors demonstrating IL-10 responses, DR7 [1, 5]: 25%
- Percentage of donors demonstrating TNF-α responses, DR7 [1, 5]: 75%
- Percentage of donors demonstrating IFN-γ responses, DR8 ([1]; DR8 donors N=4, positive = Stimulation Index ≥1.5-fold above baseline, ICCS after 14-day co-culture, 5 µg/mL peptide): 75%
- Percentage of donors demonstrating IL-2 responses, DR8 [1, 6]: 75%
- Percentage of donors demonstrating IL-4 responses, DR8 [1, 6]: 0%
- Percentage of donors demonstrating IL-10 responses, DR8 [1, 6]: 0%
- Percentage of donors demonstrating TNF-α responses, DR8 [1, 6]: 100%
- Percentage of donors demonstrating IFN-γ responses, DR9 ([1]; DR9 donors N=4, positive = Stimulation Index ≥1.5-fold above baseline, ICCS after 14-day co-culture, 5 µg/mL peptide): 50%
- Percentage of donors demonstrating IL-2 responses, DR9 [1, 7]: 75%
- Percentage of donors demonstrating IL-4 responses, DR9 [1, 7]: 0%
- Percentage of donors demonstrating IL-10 responses, DR9 [1, 7]: 0%
- Percentage of donors demonstrating TNF-α responses, DR9 [1, 7]: 50%
- Percentage of donors demonstrating IFN-γ responses, DR11 ([1]; DR11 donors N=4, positive = Stimulation Index ≥1.5-fold above baseline, ICCS after 14-day co-culture, 5 µg/mL peptide): 25%
- Percentage of donors demonstrating IL-2 responses, DR11 [1, 8]: 25%
- Percentage of donors demonstrating IL-4 responses, DR11 [1, 8]: 0%
- Percentage of donors demonstrating IL-10 responses, DR11 [1, 8]: 0%
- Percentage of donors demonstrating TNF-α responses, DR11 [1, 8]: 25%
- Percentage of donors demonstrating IFN-γ responses, DR13 ([1]; DR13 donors N=7, positive = Stimulation Index ≥1.5-fold above baseline, ICCS after 14-day co-culture, 5 µg/mL peptide): 86%
- Percentage of donors demonstrating IL-2 responses, DR13 [1, 9]: 57%
- Percentage of donors demonstrating IL-4 responses, DR13 [1, 9]: 0%
- Percentage of donors demonstrating IL-10 responses, DR13 [1, 9]: 14%
- Percentage of donors demonstrating TNF-α responses, DR13 [1, 9]: 71%
- Percentage of donors demonstrating IFN-γ responses, DR15 ([1]; DR15 donors N=7, positive = Stimulation Index ≥1.5-fold above baseline, ICCS after 14-day co-culture, 5 µg/mL peptide): 43%
- Percentage of donors demonstrating IL-2 responses, DR15 [1, 10]: 57%
- Percentage of donors demonstrating IL-4 responses, DR15 [1, 10]: 0%
- Percentage of donors demonstrating IL-10 responses, DR15 [1, 10]: 14%
- Percentage of donors demonstrating TNF-α responses, DR15 [1, 10]: 57%
- IC50 (HLA-DRB1*1501): 63.2 µM
- IC50 (HLA-DRB1*1301): 17.9 µM
- IC50 (HLA-DRB1*0801): 6.09 µM
- IC50 (HLA-DRB1*0101): > 100 µM
- IC50 (HLA-DRB1*0701): 2.76 µM
- IC50 (HLA-DRB1*0401): 32.8 µM

Structure (SMILES): CC[C@H](C)[C@H](NC(=O)[C@H](CCCCN)NC(=O)[C@H](CCCCN)NC(=O)[C@H](CC(C)C)NC(=O)[C@H](Cc1ccc(O)cc1)NC(=O)[C@H](CCC(=O)O)NC(=O)[C@@H](NC(=O)[C@@H](NC(=O)[C@@H](N)Cc1c[nH]cn1)[C@@H](C)CC)[C@@H](C)O)C(=O)O [Cluster 315_ICS2] (H-HITEYLKKI-OH)
- IC50 (HLA A*0201): 148 µM
